Values quoted from earlier work in patent US20170252312A1, “PREPARATIONS FOR TREATMENT AND PREVENTION OF ALCOHOL FLUSHING AND ALCOHOL-INDUCED HYPERSENSITIVITY REACTIONS” (BIOHIT OYJ, priority 2014, published 2017).

What was measured:
ADH enzyme = details: ALDH2-deficient individuals
[1] = tested on: microbial acetaldehyde formation from ethanol

Cc1cn[nH]c1 [4-MP, 4-methylpyrazole]
alcohol-induced increase in salivary acetaldehyde levels (ADH enzyme): markedly decrease
flushing response to alcohol (ADH enzyme): suppressed also significantly
increase in heart rate and skin temperature and drop in diastolic blood pressure (ADH enzyme; 4-MP used before ethanol intake): disappeared

CC=O [Acetaldehyde]
histamine release (rat mast cells): enhance histamine release
histamine release (human mast cells): enhance histamine release

OC[C@@H](O)[C@H](O)[C@@H](O)CO [xylitol]
inhibition of microbial acetaldehyde formation from ethanol [1]: inhibit microbial acetaldehyde formation from ethanol
